Key:
[1] = test system: Jurkat cells; assay: lactate excretion by Jurkat cells (enzymatic L-lactic acid kit); format: cell-based, human; conditions: preliminary test, 100 µM inhibitor, followed for 48 hours, versus DMSO control
Procedure: The cells were incubated in 1 mL volume (24 well plates) at 5% CO2 and 37°C. The inhibitors were added in 100 µM concentration. As a control, equivalent amount of DMSO as used for the addition of inhibitors was supplemented to the medium. The tests started with 1×10^5 cells per mL. Extracellular lactate excreted by the Jurkat cells was measured in the supernatant of the growth medium after the cells were removed by centrifugation at 1500 rpm for 5 minutes. Lactate concentration was determined enzymatically using L-Lactatic acid kit (K-LATE, Megazyme, Ireland).
Measurements of lactate excretion in the tumorigenic Jurkat cells and the cells treated with two selected inhibitors at different concentrations were repeated by more detailed measurements. The growth conditions were identical to those described in Experiment 2. No significant difference in lactate excretion could be observed by the treated and untreated cells during the initial stage of growth that lasted for approximately 12 hours. Later on lactate excretion by the Jurkat cells ceased in the presence of both inhibitors.

[2] = biological target: T1, modified (47 kDa) 6-phosphofructo-1-kinase (PFK-M), sfPFK-M fragments (Homo sapiens, UniProt P08237); assay: in vitro inhibition of purified recombinant modified (cancer-specific) PFK-M fragments; conditions: native and modified PFK-M not distinguished
T1 sequence (P08237 1-443 limits assumed): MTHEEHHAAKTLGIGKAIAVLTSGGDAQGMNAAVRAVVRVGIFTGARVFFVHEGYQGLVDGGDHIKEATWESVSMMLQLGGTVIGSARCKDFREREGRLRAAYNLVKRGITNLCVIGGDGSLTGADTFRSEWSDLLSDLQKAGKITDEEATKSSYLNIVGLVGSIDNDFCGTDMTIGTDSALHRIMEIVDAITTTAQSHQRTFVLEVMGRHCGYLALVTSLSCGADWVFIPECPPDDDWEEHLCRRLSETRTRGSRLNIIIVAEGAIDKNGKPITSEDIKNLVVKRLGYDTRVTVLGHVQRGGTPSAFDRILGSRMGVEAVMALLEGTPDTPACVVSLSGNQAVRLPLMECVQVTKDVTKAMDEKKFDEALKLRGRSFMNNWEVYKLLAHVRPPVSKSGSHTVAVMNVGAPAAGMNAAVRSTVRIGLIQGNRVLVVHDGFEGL
Procedure: Initially, all compounds were tested in vitro for inhibition of the purified human native enzyme (85 kDa) and modified cancer-specific shorter fragments (47 kDa) of muscle type PFK-M, followed by measurements of the purified native enzyme (85 kDa) and shorter fragments (70 kDa) of liver type PFK-L isoform.
Selected compounds were tested for in vitro inhibition of isolated recombinant human native and modified PFK-M enzymes.
The yeast transformant encoding the native human PFK-M enzyme was designated as nPFKM strain while transformant encoding cancer specific shorter fragments was designated as sfPFKM strain. […] For the enzymatic measurements, all the substrates (F6P and ATP), auxiliary enzymes, NADH and inhibitors dissolved in DMSO were added first to the buffer with PEG. After thorough mixing of the buffer with all ingredients, the enzymatic reaction started by the insertion of the purified recombinant enzymes.

[3] = test system: MDA-MB-231 cells; assay: cytotoxicity in MDA-MB-231 cells (LDH kit); format: cell-based; conditions: for average percent of dead MDA-MB-231 cells: single addition, average over control and different concentrations of inhibitor
Procedure: (§1) Lactate generation, growth yield and survival under normal and inhibitory conditions of three different tumorigenic cells lines were determined in more detailed measurements. […] Cytotoxicity was measured by the Lactate dehydrogenase (LDH) kit (Roche).
Inhibitors No. 23, 29, 30 and 31 were tested for preventing lactate generation by the MDA-MB-231 cells.

[4] = test system: MDA-MB-231 cells; assay: lactate excretion by MDA-MB-231 cells; format: cell-based; conditions: single addition; for lactate excretion by MDA-MB-231 cells: different concentrations
Procedure: (§2) Preliminary in vivo tests were run by measuring lactate production by three different tumorigenic cell lines. Again, 100 µM concentrations of tested compounds have been added to the medium. For the experiment, the following tumorigenic cells lines originating from different tumours were tested: Caco-2 cells (Figure 10a), originating from colorectal adenoma carcinoma; COLO 829 cells (Figure 10b), isolated from melanoma; and MDA-MB-231 cells (Figure 10c) derived from metastatic phase of mammary/breast cancer. All adherent cell lines were grown in the RPMI 1640 GlutaMAX substrate (Thermo Fisher) supplemented with 10% FBS.
Inhibitors No. 23, 29, 30 and 31 were tested for preventing lactate generation by the MDA-MB-231 cells. […] No significant discrepancies of total cell numbers were observed (Figure 14e) due to the different concentrations of inhibitors in the medium. […] The average percent of dead MDA-MB-231 cells in the control and in the presence of different concentrations of inhibitors were as follows: inh. 23 (2,98±0,2%), inh. 29 (3,37±0,39%), inh. 30 (3,4±0,21%), inh. 31 (6,87±0,44%). Additionally, cytotoxicity of inh. 3 (7,2±0,47%) and 9 (6,59±0,29%) for MDA-MB-231 cells were also determined. No dose dependent decrease of survival was observed by any inhibitor.
(§3) A decrease in inhibitory effectiveness of some compounds was observed after certain period of time (Example 11). […] Therefore, the influence of selected inhibitors was assessed by sequential re-insertion of low concentrations of inhibitors at indicated time points. The inhibitors were first added to the medium 8 hours after the inoculation followed by periodically additions at 24-hour intervals (marked by arrows).
In MDA-MB-231 calls similar results to those found in Caco-2 cells were observed. […] No significant cytostatic (Figure 17f) or cytotoxic effect of inhibitors could be detected after 92 hours of incubation despite of sequential addition of various concentrations of inhibitors. The following average percentages of dead cells were perceived in the medium without and with inh. 3 (2,05±0,18%), inh. 9 (1,85±0,05%), inh. 23 (2,20±0,15%), inh. 29 (1,54±0,16%) and inh. 30 (2,00±0,18%). No detrimental effects of increased inhibitors concentrations on cell deaths have been observed.

[5] = test system: Caco-2 cells; assay: cytotoxicity in Caco-2 cells (lactate dehydrogenase (LDH) kit); format: cell-based
Procedure: as §1

[6] = test system: COLO 829 cells; assay: cytotoxicity in COLO 829 cells (LDH kit); format: cell-based; conditions: for average percent of dead COLO 829 cells: single addition, average over control and different concentrations of inhibitor
Procedure: as §1

[7] = test system: Caco-2 cells; assay: lactate excretion by Caco-2 cells; format: cell-based; conditions: single addition
Procedure: as §2, with “Again, 100 µM concentrations of tested compounds have been added to the medium.” left out, “cancer.” for “cancer. All adherent cell lines were grown in the RPMI 1640 GlutaMAX substrate (Thermo Fisher) supplemented with 10% FBS.”
as §1
Therefore, the influence of selected inhibitors was assessed by sequential re-insertion of low concentrations of inhibitors at indicated time points. The inhibitors were first added to the medium 8 hours after the inoculation followed by periodically additions at 24-hour intervals (marked by arrows).

[8] = test system: COLO 829 cells; assay: lactate excretion by COLO 829 cells; format: cell-based; conditions: for lactate excretion by COLO 829 cells: single addition, different concentrations
Procedure: as §2
On the basis of preliminary results, inhibitors No. 23, 29, 30 and 31 were tested on COLO 829 cells. […] No significant discrepancies of total cell numbers in respect to the control were observed due to the different concentrations of inhibitors in the medium (Figure 13e). The average percent of dead COLO 829 cells in the control and in the presence of different concentrations of inhibitors were as follows: inh. 23 (9,23±0,6%), inh. 29 (9,31±0,73%), inh. 30 (8,27±0,49%), inh. 31 (8,26±0,38%). Additionally, cytotoxicity of inh. 3 (5,01±1,08%) and 9 (3,65±0,78%) for COLO 829 cells were also determined. No dose dependent decrease of survival was observed by any inhibitor.
as §3
No significant cytostatic (Figure 16f) of cytotoxic effect of inhibitors could be detected after 92 hours of incubation despite of sequential addition of various concentrations of inhibitors. The following average percentages of dead cells were perceived in the medium without and media with inh. 3 (1,95±0,15%) inh. 9 (1,70±0,14%), inh. 23 (2,40±0,09%), inh. 29 (1,66±0,25%) and inh. 30 (1,38±0,18%). No detrimental effects of increased inhibitors concentrations on cell deaths have been observed.

[9] = sequential addition at 24-hour intervals, 92 hours, average over medium without and with inhibitor

Row | SMILES | lactate excretion by the Jurkat cells [1] | in vitro PFK-M inhibition [2] | average percent of dead MDA-MB-231 cells [3] | lactate excretion by MDA-MB-231 cells [4] | average percent of dead COLO 829 cells [6] | lactate excretion by COLO 829 cells [8] | also measured
1 | Cc1nnc(COC(=O)c2ccc3noc(-c4ccccc4)c3c2)o1 [Inhibitor No. 8, (5-methyl-1 ,3,4-oxadiazol-2-yl)methyl 3-phenyl-2,1-benzoxazole-5-carboxylate] | Less efficient reduction of lactate overflow | no in vitro PFK-M inhibition could be detected | – | – | – | – | –
2 | CNC(=O)c1nc(CN2CCc3onc(-c4cccc(F)c4)c3C2)no1 [Inhibitor No. 11, 3-{[3-(3-fluorophenyl)-6,7-dihydroisoxazolo[4,5-c]pyridin-5(4H)-yl]methyl}-N-methyl-1,2,4-oxadiazole-5-carboxamide] | Less efficient reduction of lactate overflow | no in vitro PFK-M inhibition could be detected | – | – | – | – | –
3 | CNC(=O)c1nc(CN2CCc3onc(-c4ccccc4F)c3C2)no1 [Inhibitor No. 13, 3-{[3-(2-fluorophenyl)-6,7-dihydroisoxazolo[4,5-c]pyridin-5(4H)-yl]methyl}-N-methyl-1,2,4-oxadiazole-5-carboxamide] | Less efficient reduction of lactate overflow | no in vitro PFK-M inhibition could be detected | – | – | – | – | –
4 | Cc1ccc(-c2cccc(-c3ccn(Cc4nnc(C)o4)n3)c2)nn1 [Inhibitor No. 14] | Less efficient reduction of lactate overflow | no in vitro PFK-M inhibition could be detected | – | – | – | – | –
5 | CS(=O)(=O)Nc1nnc(NC(=O)c2ccc3[nH]c4c(c3c2)CCCC4)s1 [Inhibitor No. 23, N-[5-(methanesulfonamido)-1,3,4-thiadiazol-2-yl]-6,7,8,9-tetrahydro-5H-carbazole-3-carboxamide] | – | – | 2,98±0,2% | strong inhibition | 9,23±0,6% | Slightly weaker inhibition | average percentages of dead cells, MDA-MB-231, sequential re-insertion [3, 9]: 2,20±0,15%; period of strong inhibition of lactate generation, MDA-MB-231 ([4]; later on lactate generation re-appeared): 42 h; average percentages of dead cells, Caco-2, sequential re-insertion [5, 9]: 4,05±0,54%; average percent of dead cells, Caco-2 ([5]; single addition, average over control and different concentrations of inhibitor): 3,35±0,08%; average percentages of dead cells, COLO 829, sequential re-insertion [6, 9]: 2,40±0,09%; period of strong inhibition of lactate generation, Caco-2 ([7]; 20-80 µM, later the inhibitory effect was lost): 36 h; lactate generation by Caco-2 cells ([7]; different concentrations (20-80 µM)): strong inhibition of lactate generation; concentration at which comprehensive inhibition of lactate formation was detected, COLO 829 ([8]; sequential re-insertion at 24-hour intervals): ≥ 20 µM
6 | O=C(Nc1nnc(-c2ccno2)o1)[C@H]1COc2ccccc2O1 [Inhibitor No. 31, (2R)-N-(5-isoxazol-5-yl-1,3,4-oxadiazol-2-yl)-2,3-dihydro-1,4-benzodioxine-2-carboxamide] | – | – | 6,87±0,44% | dose dependent inhibition of lactate excretion | 8,26±0,38% | some inhibition | –
